Test results: ChEMBL document CHEMBL1154508, “Discovery of GSK345931A: An EP(1) receptor antagonist with efficacy in preclinical models of inflammatory pain” (Bioorg Med Chem Lett, 2009)
pEC50, pIC50, pKi: −log10 of the molar value.

Legend:
[1] = Ratio of drug level in brain to blood in complete Freund's adjuvant-induced rat inflammatory pain model at 1 mg/kg, po after 1 hr; assay type: ADME, organism-based; design: dose 1 mg/kg, route oral
[2] = Drug level in blood of sub-chronic rat joint pain efficacy model satellite animal group at 20 mg/kg bid measured on day 5 after 1 hr post dose; assay type: ADME, organism-based; design: dose 20 mg/kg; settings: read-out: Drug uptake
[3] = target: T1, Peroxisome proliferator-activated receptor alpha (Homo sapiens, UniProt Q07869); assay: Activity at PPARalpha
T1 sequence (Q07869 whole entry): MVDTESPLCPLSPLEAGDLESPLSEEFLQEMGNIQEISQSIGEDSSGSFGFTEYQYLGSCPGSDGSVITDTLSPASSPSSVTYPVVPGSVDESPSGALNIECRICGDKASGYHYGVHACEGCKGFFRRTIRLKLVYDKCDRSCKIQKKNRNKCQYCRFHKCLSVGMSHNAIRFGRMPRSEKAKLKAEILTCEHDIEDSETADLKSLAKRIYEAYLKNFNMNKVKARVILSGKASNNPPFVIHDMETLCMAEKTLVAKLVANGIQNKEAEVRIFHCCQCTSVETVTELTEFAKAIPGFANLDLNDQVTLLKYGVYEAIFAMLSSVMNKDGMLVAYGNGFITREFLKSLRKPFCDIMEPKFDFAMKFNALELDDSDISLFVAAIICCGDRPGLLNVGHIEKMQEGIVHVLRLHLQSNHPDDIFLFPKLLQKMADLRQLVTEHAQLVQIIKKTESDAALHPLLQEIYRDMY

[4] = Solubility in fed state simulated intestinal fluid after 24 hrs; assay type: physicochemical
[5] = Volume of distribution at steady state in cynomolgus monkey at 1 mg/kg, iv; assay type: ADME, organism-based, Macaca fascicularis; design: dose 1 mg/kg, route intravenous; settings: in vivo, read-out: Vdss
[6] = Drug level in brain of complete Freund's adjuvant-induced rat inflammatory pain model at 3 mg/kg, po after 1 hr; assay type: ADME, organism-based; design: dose 3 mg/kg, route oral; settings: read-out: Drug uptake
[7] = Drug level in blood of sub-chronic rat joint pain efficacy model satellite animal group at 20 mg/kg bid measured on day 1 after 1 hr post dose; assay type: ADME, organism-based; design: dose 20 mg/kg; settings: read-out: Drug uptake
[8] = Drug level in blood of sub-chronic rat joint pain efficacy model treatment group at 5 mg/kg bid measured on day 5 after 1 hr post dose; assay type: ADME, organism-based; design: dose 5 mg/kg; settings: read-out: Drug uptake
[9] = Steady state blood clearance in rat at 0.28 mg/kg/hr, iv for 18 hrs; assay type: ADME, organism-based; design: route intravenous
[10] = Drug level in blood of complete Freund's adjuvant-induced rat inflammatory pain model at 1 mg/kg, po after 1 hr; assay type: ADME, organism-based; design: dose 1 mg/kg, route oral; settings: read-out: Drug uptake
[11] = Aqueous solubility in water after 24 hrs; assay type: physicochemical
[12] = Blood clearance in cynomolgus monkey at 1 mg/kg, iv; assay type: ADME, organism-based, Macaca fascicularis; design: dose 1 mg/kg, route intravenous
[13] = Drug level in brain of complete Freund's adjuvant-induced rat inflammatory pain model at 10 mg/kg, po after 1 hr; assay type: ADME, organism-based; design: dose 10 mg/kg, route oral; settings: read-out: Drug uptake
[14] = Drug level in rat blood at 0.28 mg/kg/hr, iv for 18 hrs; assay type: ADME, organism-based; design: route intravenous; settings: read-out: Drug uptake
[15] = target: Voltage-gated inwardly rectifying potassium channel KCNH2 (Homo sapiens, UniProt Q12809); assay: Displacement of [3H]dofetilide from human ERG receptor
[16] = Drug level in brain of complete Freund's adjuvant-induced rat inflammatory pain model at 1 mg/kg, po after 1 hr; assay type: ADME, organism-based; design: dose 1 mg/kg, route oral; settings: read-out: Drug uptake
[17] = Solubility in fed state simulated intestinal fluid after 2 hrs; assay type: physicochemical
[18] = Drug level in mouse blood at 3 mg/kg, po after 0.5 hrs; assay type: ADME, organism-based; design: dose 3 mg/kg, route oral; settings: read-out: Drug uptake
[19] = target: Prostaglandin F2-alpha receptor (Homo sapiens, UniProt P43088); assay: Activity at PGF2alpha receptor by FLIPR method
[20] = target: T2, Prostaglandin E2 receptor EP1 subtype (Rattus norvegicus, UniProt P70597); assay: Binding affinity to rat EP1 receptor
T2 sequence (P70597 whole entry): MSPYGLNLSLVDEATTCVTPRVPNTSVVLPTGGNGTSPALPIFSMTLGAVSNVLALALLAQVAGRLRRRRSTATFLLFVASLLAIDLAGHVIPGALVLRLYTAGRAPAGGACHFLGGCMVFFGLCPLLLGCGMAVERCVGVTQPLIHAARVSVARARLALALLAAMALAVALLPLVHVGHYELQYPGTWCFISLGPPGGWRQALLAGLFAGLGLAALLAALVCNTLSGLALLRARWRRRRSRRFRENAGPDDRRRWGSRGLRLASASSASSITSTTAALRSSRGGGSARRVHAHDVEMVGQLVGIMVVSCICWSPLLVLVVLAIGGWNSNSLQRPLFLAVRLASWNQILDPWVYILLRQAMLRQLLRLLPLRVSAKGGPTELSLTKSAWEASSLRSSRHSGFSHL

[21] = target: T3, Peroxisome proliferator-activated receptor gamma (Homo sapiens, UniProt P37231); assay: Binding affinity to PPARgamma
T3 sequence (P37231 whole entry): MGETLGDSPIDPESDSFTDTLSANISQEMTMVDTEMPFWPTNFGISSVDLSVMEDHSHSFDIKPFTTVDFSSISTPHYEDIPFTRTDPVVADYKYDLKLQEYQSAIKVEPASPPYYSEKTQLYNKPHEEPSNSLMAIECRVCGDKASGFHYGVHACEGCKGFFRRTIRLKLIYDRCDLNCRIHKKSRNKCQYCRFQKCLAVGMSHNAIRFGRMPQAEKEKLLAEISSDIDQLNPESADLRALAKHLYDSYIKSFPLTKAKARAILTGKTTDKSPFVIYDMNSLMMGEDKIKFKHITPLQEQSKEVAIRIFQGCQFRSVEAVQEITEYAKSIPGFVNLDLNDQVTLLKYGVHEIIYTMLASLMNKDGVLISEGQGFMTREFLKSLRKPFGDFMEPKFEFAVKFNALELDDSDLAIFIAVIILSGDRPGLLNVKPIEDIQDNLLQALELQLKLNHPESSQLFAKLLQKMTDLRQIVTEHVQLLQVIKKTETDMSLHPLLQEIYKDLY

[22] = Solubility in simulated gastric fluid after 2 hrs; assay type: physicochemical
[23] = Volume of distribution at steady state in rat at 1 mg/kg, iv; assay type: ADME, organism-based; design: dose 1 mg/kg, route intravenous; settings: in vivo, read-out: Vdss
[24] = Partition ratio of fraction unbound in rat brain to blood; assay type: ADME, tissue-based
[25] = Oral bioavailability in cynomolgus monkey at 3 mg/kg; assay type: ADME, organism-based, Macaca fascicularis; settings: in vivo
[26] = Drug level in brain of sub-chronic rat joint pain efficacy satellite animal group model at 5 mg/kg bid measured on day 5 after 1 hr post dose; assay type: ADME, organism-based; design: dose 5 mg/kg; settings: read-out: Drug uptake

Sequence of Prostaglandin F2-alpha receptor (P43088 whole entry): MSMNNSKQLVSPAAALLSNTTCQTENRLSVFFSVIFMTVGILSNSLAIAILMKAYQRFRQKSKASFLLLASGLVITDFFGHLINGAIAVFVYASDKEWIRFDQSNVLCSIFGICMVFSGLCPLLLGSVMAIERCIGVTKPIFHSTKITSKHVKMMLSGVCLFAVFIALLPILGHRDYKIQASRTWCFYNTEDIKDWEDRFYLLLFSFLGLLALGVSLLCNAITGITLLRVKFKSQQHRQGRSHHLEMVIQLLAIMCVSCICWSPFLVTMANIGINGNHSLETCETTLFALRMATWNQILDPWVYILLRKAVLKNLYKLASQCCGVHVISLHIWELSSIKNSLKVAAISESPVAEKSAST
Sequence of Voltage-gated inwardly rectifying potassium channel KCNH2 (Q12809 whole entry): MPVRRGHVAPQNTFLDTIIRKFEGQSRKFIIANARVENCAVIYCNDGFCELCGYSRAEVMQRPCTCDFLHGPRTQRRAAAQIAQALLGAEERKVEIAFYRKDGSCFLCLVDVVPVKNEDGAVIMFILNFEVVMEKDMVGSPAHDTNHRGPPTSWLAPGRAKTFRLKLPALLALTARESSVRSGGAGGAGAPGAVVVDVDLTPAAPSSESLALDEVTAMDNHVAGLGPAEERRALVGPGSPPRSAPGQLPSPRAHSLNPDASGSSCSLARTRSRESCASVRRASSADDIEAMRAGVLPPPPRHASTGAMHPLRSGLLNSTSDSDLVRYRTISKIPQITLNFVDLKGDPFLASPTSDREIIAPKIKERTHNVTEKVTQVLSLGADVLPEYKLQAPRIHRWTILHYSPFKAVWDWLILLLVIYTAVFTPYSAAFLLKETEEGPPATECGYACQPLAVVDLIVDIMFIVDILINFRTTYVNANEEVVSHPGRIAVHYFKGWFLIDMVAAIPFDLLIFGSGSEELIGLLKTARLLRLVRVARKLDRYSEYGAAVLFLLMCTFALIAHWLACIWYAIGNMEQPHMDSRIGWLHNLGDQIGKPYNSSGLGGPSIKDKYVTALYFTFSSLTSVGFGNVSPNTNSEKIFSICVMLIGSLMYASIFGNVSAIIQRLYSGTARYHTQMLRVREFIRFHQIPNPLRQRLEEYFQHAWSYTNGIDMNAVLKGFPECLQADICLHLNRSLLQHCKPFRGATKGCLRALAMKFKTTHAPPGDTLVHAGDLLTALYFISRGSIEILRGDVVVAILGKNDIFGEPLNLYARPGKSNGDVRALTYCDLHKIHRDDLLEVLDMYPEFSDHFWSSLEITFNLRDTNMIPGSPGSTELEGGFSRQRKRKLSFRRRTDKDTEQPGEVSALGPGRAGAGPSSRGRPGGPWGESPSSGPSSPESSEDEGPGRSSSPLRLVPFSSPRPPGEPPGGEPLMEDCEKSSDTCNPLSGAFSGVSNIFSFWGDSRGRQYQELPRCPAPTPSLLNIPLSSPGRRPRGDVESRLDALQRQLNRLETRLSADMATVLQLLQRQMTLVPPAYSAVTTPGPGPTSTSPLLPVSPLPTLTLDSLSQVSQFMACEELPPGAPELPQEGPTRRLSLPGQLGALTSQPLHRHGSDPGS

CC(C)COc1ccc(Cl)cc1-c1ccccc1-c1cccc(C(=O)[O-])n1.[Na+]
Kp at 1 h [1]: 0.27
concentration at 1 h [2]: 6.77 µM
pEC50 [3]: < 5.00
solubility at 24 h [4]: 1140 µg/mL
Vd [5]: 0.5 L/kg
concentration at 1 h [6]: 1480 nM
concentration at 1 h [7]: 25.9 µM
concentration at 1 h [8]: 1630 nM
clearance [9]: 8 mL/min/kg
concentration at 1 h [10]: 948 nM
solubility at 24 h [11]: 612 µg/mL
clearance [12]: 26 mL/min/kg
concentration at 1 h [13]: 7.26 µM
concentration at 18 h [14]: 1660 nM
pIC50 [15]: < 4.50
concentration at 1 h [16]: 317 nM
solubility at 2 h [17]: 1220 µg/mL
concentration at 0.5 h [18]: 1120 nM
pIC50 [19]: < 5.00
pIC50 [20]: 7.90
pKi [21]: 4.90
solubility at 2 h [22]: 33 µg/mL
Vd [23]: 1.9 L/kg
Kbb [24]: 0.93
bioavailability [25]: 34%
concentration at 1 h [26]: 822 nM
